Laboratory results published in patent US20190231755A1, “METHOD FOR PRODUCING SOLID DISPERSION COMPRISING RAPAMYCIN DERIVATIVE” (NIPPON KAYAKU KABUSHIKI KAISHA, priority 2016, published 2019).

Legend:
Type in all cases: physicochemical
[1] = Stability test of everolimus in various mixed solvents (Reference Example 1); conditions: 1 mg/mL everolimus in ethanol/acetone mixed solvents, 25° C., up to 24 hours; when the ratio of ethanol is increased (FIG. 2)
Protocol: (§1) It is to be noted that, in the analysis using liquid chromatography (HPLC) in the present test examples, the measurement was carried out under the following conditions. • Measurement column: Zorbax Eclipse XDB-C18, Rapid resolution HT, 100 mm×4.6 mm, 1.8 μm • Detector: ultraviolet absorption spectrophotometer (measurement wavelength: 278 nm) • Column temperature: 45° C. • Mobile phase A: 0.1% formic acid; mobile phase B: methanol/acetonitrile=50/50
The stability test of everolimus in various mixed solvents was carried out. Various mixed solvents were each added to everolimus, and the prepared solutions each containing 1 mg/mL everolimus were then stored at 25° C.
The remaining amount of everolimus immediately after initiation of the storage test, and also 1 hour, 3 hours, 6 hours and 24 hours after initiation of the storage test was measured by high performance liquid chromatography (HPLC), and the peak area ratio of everolimus at each time point was then calculated. The ratio of solvents used for each sample is shown in Table 2, and the results obtained by measuring the remaining ratio of everolimus are shown in FIG. 2.

[2] = Stability test of everolimus with hypromellose in ethanol:acetone (=9:1) (Reference Example 2); conditions: 10 mg everolimus with 150 mg hypromellose in 10 mL ethanol:acetone (=9:1), 25° C., up to 6 hours (FIG. 3)
Protocol: as §1
The stability test of everolimus comprising a water-soluble polymeric carrier in a mixed solution of ethanol and acetone (=9:1) was carried out. 10 mL of the mixed solution of ethanol and acetone (=9:1) was added to 150 mg of hypromellose (TC-5 E Type, manufactured by Shin-Etsu Chemical Co., Ltd.), and the obtained mixture was then stirred. To this mixture, 10 mg of everolimus was added, and the thus prepared mixture was then stored at 25° C.
The remaining amount of everolimus immediately after initiation of the storage test, and also 1 hour, 3 hours and 6 hours after initiation of the storage test was measured by high performance liquid chromatography (HPLC), and the peak area ratio of everolimus at each time point was then calculated.

[3] = Stability test of everolimus with hypromellose in an ethanol solution (Reference Example 3); conditions: 10 mg everolimus with 150 mg hypromellose and 15 mg anhydrous lactose in 10 mL ethanol, 25° C.; immediately after the production (FIG. 4)
Protocol: as §1
The stability test of everolimus comprising a water-soluble polymeric carrier in an ethanol solution was carried out. 10 mL of ethanol was added to 150 mg of hypromellose (TC-5 E Type, manufactured by Shin-Etsu Chemical Co., Ltd.), and the obtained mixture was then stirred. To this mixture, 10 mg of everolimus was added, followed by stirring, and thereafter, 15 mg of anhydrous lactose was added to the reaction mixture, and the obtained mixture was further stirred. The thus prepared mixture was stored at 25° C.
The remaining amount of everolimus immediately after initiation of the storage test, and also 0.75 hours and 2 hours after initiation of the storage test was measured by high performance liquid chromatography (HPLC), and the peak area ratio of everolimus at each time point was then calculated.

- purity of everolimus in solution (trend in words) [1]: decreased
- stability of everolimus in mixture (in words) [2]: improved
- remaining ratio of everolimus [3]: less than 96%
Compound: CO[C@H]1C[C@@H]2CC[C@@H](C)[C@@](O)(O2)C(=O)C(=O)N2CCCC[C@H]2C(=O)O[C@H]([C@H](C)C[C@@H]2CC[C@@H](OCCO)[C@H](OC)C2)CC(=O)[C@H](C)/C=C(\C)[C@@H](O)[C@@H](OC)C(=O)[C@H](C)C[C@H](C)/C=C/C=C/C=C/1C [everolimus, 40-O-(2-hydroxyethyl)rapamycin]
